Test results reported in PubChem BioAssay (NCI).
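Results reflect a 48-hour exposure of cells in 96-well plates to compound at five concentrations. GI50 marks 50% less growth. TGI: concentration producing complete growth inhibition.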

Key:
Experiment in all cases: NCI anticancer screen, dose series, 48 h
[1] = tested on: 786-0 renal
[2] = tested on: A498 renal
[3] = tested on: A549 NSCLC
[4] = tested on: ACHN renal
[5] = tested on: BT-549 breast
[6] = tested on: CAKI-1 renal
[7] = tested on: CCRF-CEM leukemia
[8] = tested on: COLO 205 colon
[9] = tested on: DU-145 prostate
[10] = tested on: EKVX NSCLC
[11] = tested on: HCC-2998 colon
[12] = tested on: HCT-116 colon
[13] = tested on: HCT-15 colon
[14] = tested on: HL-60(TB) leukemia
[15] = tested on: HOP-62 NSCLC
[16] = tested on: HOP-92 NSCLC
[17] = tested on: HS 578T breast
[18] = tested on: HT29 colon
[19] = tested on: IGROV1 ovarian
[20] = tested on: K-562 leukemia
[21] = tested on: KM12 colon
[22] = tested on: LOX IMVI melanoma
[23] = tested on: M14 melanoma
[24] = tested on: MALME-3M melanoma
[25] = tested on: MCF7 breast
[26] = tested on: MDA-MB-231 breast
[27] = tested on: MDA-MB-435
[28] = tested on: MOLT-4 leukemia
[29] = tested on: NCI-H226 lung
[30] = tested on: NCI-H23 lung
[31] = tested on: NCI-H460 lung
[32] = tested on: NCI-H522 lung
[33] = tested on: OVCAR-3 ovarian
[34] = tested on: OVCAR-4 ovarian
[35] = tested on: OVCAR-5 ovarian
[36] = tested on: OVCAR-8 ovarian
[37] = tested on: PC-3 prostate
[38] = tested on: RPMI-8226 leukemia
[39] = tested on: RXF 393 renal
[40] = tested on: SF-268 CNS
[41] = tested on: SF-295 CNS
[42] = tested on: SF-539 CNS
[43] = tested on: SK-MEL-2 melanoma
[44] = tested on: SK-MEL-28 melanoma
[45] = tested on: SK-MEL-5 melanoma
[46] = tested on: SK-OV-3 ovarian
[47] = tested on: SN12C renal
[48] = tested on: SNB-19 CNS
[49] = tested on: SR leukemia
[50] = tested on: SW-620 colon
[51] = tested on: T-47D breast
[52] = tested on: TK-10 renal
[53] = tested on: U251 CNS
[54] = tested on: UACC-257 melanoma
[55] = tested on: UACC-62 melanoma
[56] = tested on: UO-31 renal

Q: What does the source list for `COc1cc(-n2cncc2-c2ccc3ccccc3c2)cc(OC)c1OC`?
A: GI50 [1]: 49.6 nM; TGI [1]: 18500 nM; GI50 [2]: < 10 nM; TGI [2]: 1410 nM; GI50 [3]: 26.9 nM; TGI [3]: > 100000 nM; TGI [4]: > 57200 nM; GI50 [5]: 62.1 nM; TGI [5]: > 100000 nM; GI50 [6]: 37 nM; TGI [6]: > 100000 nM; GI50 [7]: 34.4 nM; TGI [7]: > 100000 nM; GI50 [8]: < 10 nM; TGI [8]: 391 nM; GI50 [9]: 32.4 nM; TGI [9]: > 100000 nM; GI50 [10]: 65.7 nM; TGI [10]: > 100000 nM; GI50 [11]: < 11.6 nM; TGI [11]: 29.7 nM; GI50 [12]: < 18.1 nM; TGI [12]: > 34600 nM; GI50 [13]: < 16.9 nM; TGI [13]: > 53200 nM; GI50 [14]: < 10 nM; TGI [14]: 1540 nM; GI50 [15]: 39.1 nM; TGI [15]: 25100 nM; GI50 [16]: 957 nM; TGI [16]: > 100000 nM; GI50 [17]: < 12.7 nM; TGI [17]: > 100000 nM; GI50 [18]: < 14.4 nM; TGI [18]: > 70600 nM; GI50 [19]: 87.2 nM; TGI [19]: > 38000 nM; GI50 [20]: < 10 nM; TGI [20]: > 83400 nM; GI50 [21]: < 10 nM; TGI [21]: > 100000 nM; GI50 [22]: 87.2 nM; TGI [22]: > 41800 nM; GI50 [23]: 17.1 nM; TGI [23]: 5620 nM; GI50 [24]: > 100000 nM; TGI [24]: > 100000 nM; GI50 [25]: < 10 nM; TGI [25]: > 100000 nM; GI50 [26]: 59.5 nM; TGI [26]: > 57600 nM; GI50 [27]: < 10 nM; TGI [27]: > 100000 nM; GI50 [28]: 53.8 nM; TGI [28]: > 66900 nM; GI50 [29]: 2030 nM; TGI [29]: > 62000 nM; GI50 [30]: 25.5 nM; TGI [30]: 5910 nM; GI50 [31]: < 17.9 nM; TGI [31]: > 100000 nM; GI50 [32]: < 10 nM; GI50 [33]: < 17.9 nM; TGI [33]: > 100000 nM; TGI [34]: > 100000 nM; GI50 [35]: 48.4 nM; TGI [35]: 53400 nM; GI50 [36]: 54.6 nM; TGI [36]: > 100000 nM; GI50 [37]: 15.8 nM; TGI [37]: > 100000 nM; GI50 [38]: 54.3 nM; TGI [38]: > 100000 nM; GI50 [39]: 19.9 nM; TGI [39]: 28900 nM; GI50 [40]: 26 nM; TGI [40]: > 59000 nM; GI50 [41]: < 10 nM; TGI [41]: > 100000 nM; GI50 [42]: 18.4 nM; TGI [42]: 73400 nM; GI50 [43]: 30.9 nM; TGI [43]: 51800 nM; TGI [44]: > 100000 nM; GI50 [45]: < 10 nM; GI50 [46]: 51.8 nM; TGI [46]: > 69400 nM; GI50 [47]: 1050 nM; TGI [47]: > 100000 nM; GI50 [48]: 23.4 nM; TGI [48]: > 100000 nM; GI50 [49]: < 10 nM; TGI [49]: 10400 nM; GI50 [50]: < 15.9 nM; TGI [50]: > 100000 nM; GI50 [51]: > 100000 nM; TGI [51]: > 100000 nM; GI50 [52]: 33800 nM; TGI [52]: > 100000 nM; GI50 [53]: 23 nM; TGI [53]: 16700 nM; GI50 [54]: > 87000 nM; TGI [54]: > 100000 nM; TGI [55]: > 54500 nM; GI50 [56]: 401 nM; TGI [56]: > 100000 nM
